These results are taken from paper PMC9030254, “Target Hopping from Protein Kinases to PXR: Identification of Small-Molecule Protein Kinase Inhibitors as Selective Modulators of Pregnane X Receptor from TüKIC Library” (Cells, 2022).

Test in all cases: Kinase profiling
Holding throughout (type): biochemical

The target in one assay is T1, VRK1 (Homo sapiens, UniProt Q99986).
T1 construct: purchased ProQinase (Freiburg, Germany)
T1 sequence (Q99986 1-396): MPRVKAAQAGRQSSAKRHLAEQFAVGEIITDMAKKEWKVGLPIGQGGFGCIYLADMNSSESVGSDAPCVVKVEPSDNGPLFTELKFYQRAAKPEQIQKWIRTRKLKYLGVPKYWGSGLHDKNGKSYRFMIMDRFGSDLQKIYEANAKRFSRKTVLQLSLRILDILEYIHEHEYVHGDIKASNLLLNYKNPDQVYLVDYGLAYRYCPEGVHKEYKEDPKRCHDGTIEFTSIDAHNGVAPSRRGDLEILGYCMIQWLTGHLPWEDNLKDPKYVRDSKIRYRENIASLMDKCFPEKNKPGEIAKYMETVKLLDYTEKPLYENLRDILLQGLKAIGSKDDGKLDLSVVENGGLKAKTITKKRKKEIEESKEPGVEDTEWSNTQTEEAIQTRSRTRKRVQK
As for the experimental part:
(§1) The analysis was performed by ProQinase (Freiburg, Germany).

The target of the next assay is T2, SGK2 (Homo sapiens, UniProt Q9HBY8).
T2 construct: purchased ProQinase (Freiburg, Germany)
T2 sequence (Q9HBY8 1-367): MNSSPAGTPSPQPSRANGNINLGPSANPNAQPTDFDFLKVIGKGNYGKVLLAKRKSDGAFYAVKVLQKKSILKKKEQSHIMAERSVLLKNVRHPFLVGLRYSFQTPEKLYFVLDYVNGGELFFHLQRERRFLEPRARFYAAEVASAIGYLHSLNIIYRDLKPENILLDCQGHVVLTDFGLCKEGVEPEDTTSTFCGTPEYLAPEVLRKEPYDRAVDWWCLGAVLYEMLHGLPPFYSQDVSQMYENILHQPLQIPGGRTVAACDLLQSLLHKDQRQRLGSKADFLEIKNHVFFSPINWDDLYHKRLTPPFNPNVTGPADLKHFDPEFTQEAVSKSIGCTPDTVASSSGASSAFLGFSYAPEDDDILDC
As for the experimental part:
as §1

The target of another assay is T3, MAP3K10 (Homo sapiens, UniProt Q02779).
T3 construct: purchased ProQinase (Freiburg, Germany)
T3 sequence (Q02779 whole entry): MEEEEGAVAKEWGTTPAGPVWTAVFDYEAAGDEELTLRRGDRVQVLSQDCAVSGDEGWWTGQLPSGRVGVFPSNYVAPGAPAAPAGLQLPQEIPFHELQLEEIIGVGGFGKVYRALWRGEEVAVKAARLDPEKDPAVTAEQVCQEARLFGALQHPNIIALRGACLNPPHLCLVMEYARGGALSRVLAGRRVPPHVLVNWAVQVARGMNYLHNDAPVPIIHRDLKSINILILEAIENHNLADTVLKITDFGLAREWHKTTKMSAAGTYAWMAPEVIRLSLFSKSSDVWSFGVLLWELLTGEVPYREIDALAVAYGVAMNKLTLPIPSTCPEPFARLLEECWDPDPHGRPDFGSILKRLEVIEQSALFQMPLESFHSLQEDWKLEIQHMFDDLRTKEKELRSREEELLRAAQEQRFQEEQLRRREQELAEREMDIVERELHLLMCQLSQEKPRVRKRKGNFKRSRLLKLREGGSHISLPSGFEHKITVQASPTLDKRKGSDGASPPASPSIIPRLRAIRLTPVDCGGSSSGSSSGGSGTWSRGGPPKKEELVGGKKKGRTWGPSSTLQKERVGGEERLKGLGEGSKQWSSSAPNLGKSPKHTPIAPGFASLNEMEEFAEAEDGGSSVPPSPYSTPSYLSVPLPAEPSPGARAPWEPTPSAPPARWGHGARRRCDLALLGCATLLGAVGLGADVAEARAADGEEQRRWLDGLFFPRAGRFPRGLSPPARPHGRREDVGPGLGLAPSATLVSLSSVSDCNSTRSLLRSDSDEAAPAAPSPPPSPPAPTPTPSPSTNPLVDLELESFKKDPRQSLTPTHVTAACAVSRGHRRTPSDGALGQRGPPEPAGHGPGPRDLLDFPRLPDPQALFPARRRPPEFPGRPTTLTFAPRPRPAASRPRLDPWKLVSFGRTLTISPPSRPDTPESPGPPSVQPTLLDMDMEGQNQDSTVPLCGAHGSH
As for the experimental part: as §1

Another assay concerns the target T4, RPS6KA6 (Homo sapiens, UniProt Q9UK32).
T4 construct: purchased ProQinase (Freiburg, Germany)
As for the experimental part:
as §1

The next assay deals with T5, CDK5/p35NCK (Homo sapiens, UniProt Q00535).
T5 construct: purchased ProQinase (Freiburg, Germany)
T5 sequence (Q00535 whole entry): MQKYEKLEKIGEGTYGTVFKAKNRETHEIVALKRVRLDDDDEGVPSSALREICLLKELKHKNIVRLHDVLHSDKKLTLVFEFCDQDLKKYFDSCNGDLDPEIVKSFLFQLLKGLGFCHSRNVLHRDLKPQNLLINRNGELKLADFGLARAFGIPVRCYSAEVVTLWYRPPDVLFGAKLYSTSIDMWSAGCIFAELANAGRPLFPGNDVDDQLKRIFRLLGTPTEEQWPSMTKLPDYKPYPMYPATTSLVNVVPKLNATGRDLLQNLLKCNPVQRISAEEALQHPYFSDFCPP
T5 sequence (Q15078 whole entry partner): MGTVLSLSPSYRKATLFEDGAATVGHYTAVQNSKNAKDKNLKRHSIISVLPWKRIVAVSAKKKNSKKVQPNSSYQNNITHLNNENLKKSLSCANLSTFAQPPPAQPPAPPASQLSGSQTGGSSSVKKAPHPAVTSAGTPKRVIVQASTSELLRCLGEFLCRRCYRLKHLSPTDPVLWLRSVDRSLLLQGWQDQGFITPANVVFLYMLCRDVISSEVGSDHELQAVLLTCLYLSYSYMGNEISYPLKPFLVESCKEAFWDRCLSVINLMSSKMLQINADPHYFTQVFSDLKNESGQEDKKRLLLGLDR
As for the experimental part: as §1

Another assay has as its target T6, CK2alpha2 (Homo sapiens, UniProt P19784).
T6 construct: purchased ProQinase (Freiburg, Germany)
As for the experimental part:
as §1

Another assay addresses T7, CDK8/CycC (Homo sapiens, UniProt P49336).
T7 construct: purchased ProQinase (Freiburg, Germany)
As for the experimental part: as §1

The target of a further assay is T8, DDR2 (Homo sapiens, UniProt Q16832).
T8 construct: purchased ProQinase (Freiburg, Germany)
T8 sequence (Q16832 22-855): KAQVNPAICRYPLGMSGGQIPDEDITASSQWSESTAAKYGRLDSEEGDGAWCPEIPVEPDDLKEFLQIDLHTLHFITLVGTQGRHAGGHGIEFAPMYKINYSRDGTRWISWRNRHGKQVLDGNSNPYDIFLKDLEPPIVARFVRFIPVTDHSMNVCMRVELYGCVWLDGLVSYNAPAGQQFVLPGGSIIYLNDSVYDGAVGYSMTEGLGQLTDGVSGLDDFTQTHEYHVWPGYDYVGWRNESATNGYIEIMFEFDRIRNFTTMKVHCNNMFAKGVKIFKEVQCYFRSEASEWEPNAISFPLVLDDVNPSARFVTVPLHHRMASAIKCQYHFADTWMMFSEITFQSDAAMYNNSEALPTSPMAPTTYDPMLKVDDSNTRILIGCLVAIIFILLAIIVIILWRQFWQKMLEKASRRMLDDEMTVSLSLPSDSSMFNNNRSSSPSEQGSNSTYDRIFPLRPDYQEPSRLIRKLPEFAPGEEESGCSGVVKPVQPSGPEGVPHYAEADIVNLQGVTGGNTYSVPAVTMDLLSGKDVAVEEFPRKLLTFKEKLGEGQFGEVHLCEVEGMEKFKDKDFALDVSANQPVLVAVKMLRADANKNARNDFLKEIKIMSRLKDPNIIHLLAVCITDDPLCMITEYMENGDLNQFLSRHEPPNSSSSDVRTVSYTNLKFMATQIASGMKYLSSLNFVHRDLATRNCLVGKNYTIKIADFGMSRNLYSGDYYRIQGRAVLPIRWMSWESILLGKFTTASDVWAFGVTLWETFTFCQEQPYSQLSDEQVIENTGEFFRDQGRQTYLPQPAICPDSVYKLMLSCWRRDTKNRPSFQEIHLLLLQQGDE
As for the experimental part: as §1

The next assay deals with T9, TYRO3 (Homo sapiens, UniProt Q06418).
T9 construct: purchased ProQinase (Freiburg, Germany)
T9 sequence (Q06418 41-890): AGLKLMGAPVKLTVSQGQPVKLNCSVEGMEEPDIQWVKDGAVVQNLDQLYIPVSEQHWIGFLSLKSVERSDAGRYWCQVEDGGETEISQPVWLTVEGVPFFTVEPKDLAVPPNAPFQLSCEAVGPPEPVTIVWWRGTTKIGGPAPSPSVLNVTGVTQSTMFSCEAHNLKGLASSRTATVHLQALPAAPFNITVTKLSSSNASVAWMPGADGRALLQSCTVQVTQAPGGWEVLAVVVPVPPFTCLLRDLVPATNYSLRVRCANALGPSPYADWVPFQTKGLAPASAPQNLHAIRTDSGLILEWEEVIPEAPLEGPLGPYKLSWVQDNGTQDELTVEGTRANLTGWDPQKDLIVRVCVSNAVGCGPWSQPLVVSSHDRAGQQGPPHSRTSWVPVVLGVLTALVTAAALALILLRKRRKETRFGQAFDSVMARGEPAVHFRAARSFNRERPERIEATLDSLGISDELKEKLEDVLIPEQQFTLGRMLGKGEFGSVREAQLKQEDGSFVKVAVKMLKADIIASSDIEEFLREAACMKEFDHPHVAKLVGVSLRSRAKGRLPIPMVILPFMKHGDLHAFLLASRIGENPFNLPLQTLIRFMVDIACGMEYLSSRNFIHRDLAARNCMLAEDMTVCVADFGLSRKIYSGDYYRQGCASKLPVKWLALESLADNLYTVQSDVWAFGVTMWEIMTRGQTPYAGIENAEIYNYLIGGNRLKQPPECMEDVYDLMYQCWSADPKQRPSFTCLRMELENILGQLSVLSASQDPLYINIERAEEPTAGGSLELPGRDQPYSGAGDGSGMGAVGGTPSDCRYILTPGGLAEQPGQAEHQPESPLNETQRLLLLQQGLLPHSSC
As for the experimental part:
as §1

T4 sequence (Q9UK32 whole entry): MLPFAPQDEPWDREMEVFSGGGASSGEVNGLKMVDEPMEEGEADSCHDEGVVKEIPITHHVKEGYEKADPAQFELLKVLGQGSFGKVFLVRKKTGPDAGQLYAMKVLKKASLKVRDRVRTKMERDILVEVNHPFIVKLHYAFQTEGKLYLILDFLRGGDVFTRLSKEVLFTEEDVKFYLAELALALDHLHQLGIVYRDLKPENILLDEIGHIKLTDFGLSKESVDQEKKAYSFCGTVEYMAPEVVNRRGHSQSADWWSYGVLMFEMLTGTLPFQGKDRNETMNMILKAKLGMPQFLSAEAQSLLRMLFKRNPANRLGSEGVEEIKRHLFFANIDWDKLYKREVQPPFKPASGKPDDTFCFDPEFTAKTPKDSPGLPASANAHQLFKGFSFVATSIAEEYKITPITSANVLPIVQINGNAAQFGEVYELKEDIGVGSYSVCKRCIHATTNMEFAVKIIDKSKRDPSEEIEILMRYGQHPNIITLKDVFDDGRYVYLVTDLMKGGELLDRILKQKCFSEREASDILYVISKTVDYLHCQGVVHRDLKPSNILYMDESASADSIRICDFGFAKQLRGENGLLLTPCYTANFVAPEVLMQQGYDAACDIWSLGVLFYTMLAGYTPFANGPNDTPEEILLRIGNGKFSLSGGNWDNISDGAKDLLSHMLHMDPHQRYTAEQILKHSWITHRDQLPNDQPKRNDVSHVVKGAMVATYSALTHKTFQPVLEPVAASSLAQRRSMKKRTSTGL
T6 sequence (P19784 whole entry): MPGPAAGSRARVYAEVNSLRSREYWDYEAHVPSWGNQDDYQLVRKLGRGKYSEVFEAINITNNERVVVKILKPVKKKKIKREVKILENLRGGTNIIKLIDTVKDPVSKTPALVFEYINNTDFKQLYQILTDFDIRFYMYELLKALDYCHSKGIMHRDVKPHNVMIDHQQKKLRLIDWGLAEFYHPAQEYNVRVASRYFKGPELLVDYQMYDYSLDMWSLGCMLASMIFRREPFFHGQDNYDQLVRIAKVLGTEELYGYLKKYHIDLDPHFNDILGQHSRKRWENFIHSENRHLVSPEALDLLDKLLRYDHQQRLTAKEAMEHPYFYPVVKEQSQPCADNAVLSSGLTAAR
T7 sequence (P49336 whole entry): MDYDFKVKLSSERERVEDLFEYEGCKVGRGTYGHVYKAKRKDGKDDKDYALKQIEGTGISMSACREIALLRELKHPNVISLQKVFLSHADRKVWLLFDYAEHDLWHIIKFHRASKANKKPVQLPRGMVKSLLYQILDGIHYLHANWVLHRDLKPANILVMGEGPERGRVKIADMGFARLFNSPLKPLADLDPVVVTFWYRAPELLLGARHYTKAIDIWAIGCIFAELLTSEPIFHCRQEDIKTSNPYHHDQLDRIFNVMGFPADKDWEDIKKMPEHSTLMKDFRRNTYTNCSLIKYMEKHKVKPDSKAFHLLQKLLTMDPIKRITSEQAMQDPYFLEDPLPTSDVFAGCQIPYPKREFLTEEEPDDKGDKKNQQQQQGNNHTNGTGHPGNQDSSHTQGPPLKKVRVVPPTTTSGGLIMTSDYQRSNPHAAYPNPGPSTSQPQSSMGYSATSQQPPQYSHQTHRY
T7 sequence (P24863 whole entry partner): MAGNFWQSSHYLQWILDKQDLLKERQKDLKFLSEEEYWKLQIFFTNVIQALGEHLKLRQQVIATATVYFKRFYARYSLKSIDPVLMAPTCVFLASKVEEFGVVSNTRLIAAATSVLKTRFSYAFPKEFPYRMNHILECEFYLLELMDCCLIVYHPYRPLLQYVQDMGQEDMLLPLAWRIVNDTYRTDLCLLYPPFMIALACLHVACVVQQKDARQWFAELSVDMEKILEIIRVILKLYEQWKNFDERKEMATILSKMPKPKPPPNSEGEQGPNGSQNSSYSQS

For the compound `O=C(Nc1ccc(F)c(Nc2ccc3c(c2)CCCCC3=O)c1)c1cccc(F)c1` [Compound 109], the Residual activity on VRK1 (1.0E-05 M) is listed as 130 % of control; at VRK1 (1.0E-06 M) it was 100 % of control; at SGK2 (1.0E-05 M), 96 % of control; on SGK2 (1.0E-06 M) it was 97 % of control; at MAP3K10 (1.0E-05 M), 91 % of control; at MAP3K10 (1.0E-06 M), 96 % of control. Also, the Residual activity at RPS6KA6 (1.0E-05 M) is 81 % of control; at RPS6KA6 (1.0E-06 M), 88 % of control; at CDK5/p35NCK (1.0E-05 M) it was 101 % of control; on CDK5/p35NCK (1.0E-06 M), 95 % of control; on CK2alpha2 (1.0E-05 M) it was 118 % of control; at CK2alpha2 (1.0E-06 M), 119 % of control. The Residual activity is given as 61 % of control on CDK8/CycC (1.0E-05 M); 79 % of control on CDK8/CycC (1.0E-06 M); 64 % of control at DDR2 (1.0E-05 M); 93 % of control on DDR2 (1.0E-06 M); 92 % of control at TYRO3 (1.0E-05 M); 104 % of control at TYRO3 (1.0E-06 M).

For `O=C(Cc1ccccc1)Nc1ccc(F)c(Nc2ccc3c(c2)CCCCC3=O)c1` [Compound 100], the Residual activity on VRK1 (1.0E-05 M) is reported as 103 % of control; on VRK1 (1.0E-06 M), 102 % of control; on SGK2 (1.0E-05 M), 93 % of control; on SGK2 (1.0E-06 M) it was 101 % of control; at MAP3K10 (1.0E-05 M), 84 % of control; on MAP3K10 (1.0E-06 M) it was 106 % of control. Further, the Residual activity was 83 % of control at RPS6KA6 (1.0E-05 M); 90 % of control on RPS6KA6 (1.0E-06 M); 93 % of control on CDK5/p35NCK (1.0E-05 M); 105 % of control on CDK5/p35NCK (1.0E-06 M); 134 % of control on CK2alpha2 (1.0E-05 M); 137 % of control on CK2alpha2 (1.0E-06 M). The Residual activity on CDK8/CycC (1.0E-05 M) is listed as 60 % of control; on CDK8/CycC (1.0E-06 M) it was 82 % of control; on DDR2 (1.0E-05 M), 71 % of control; at DDR2 (1.0E-06 M), 94 % of control; on TYRO3 (1.0E-05 M), 77 % of control; at TYRO3 (1.0E-06 M), 96 % of control.
